What was measured:
[1] = biological target: T1, A1 human adenosine receptor (A1R) (Homo sapiens, UniProt P30542); experiment: Radioligand binding competition assay, human A1 receptor in transfected CHO cells; details: for inhibition at 0.1 µM: 0.1 µM compound, read-out: % displacement at 0.1 μM (A1R); for Ki: Cheng-Prusoff approximation
T1 construct: expressed in transfected cells; host or cells: CHO
T1 sequence (P30542 1-326): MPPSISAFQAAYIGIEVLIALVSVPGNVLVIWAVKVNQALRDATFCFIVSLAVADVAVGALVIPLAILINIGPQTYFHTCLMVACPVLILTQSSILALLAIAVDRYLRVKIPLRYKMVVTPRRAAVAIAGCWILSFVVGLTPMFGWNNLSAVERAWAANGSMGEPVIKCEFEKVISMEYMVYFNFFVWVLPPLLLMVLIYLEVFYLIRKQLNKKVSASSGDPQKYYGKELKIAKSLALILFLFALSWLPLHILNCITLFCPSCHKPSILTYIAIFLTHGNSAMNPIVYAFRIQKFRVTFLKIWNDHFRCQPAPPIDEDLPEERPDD
Description: Pharmacological evaluation was performed in a radioligand binding competition assay, using A1, A2A, A2B, and A3 human receptors expressed in transfected CHO (A1), HeLa (A2A and A3), and HEK-293 (A2B) according to the procedure reported by Bosch et al. [78].

[2] = biological target: T2, A2A human adenosine receptor (A2AR) (Homo sapiens, UniProt P29274); experiment: Radioligand binding competition assay, human A2A receptor in transfected HeLa cells; details: for % displacement at 0.1 μM (A2AR): 0.1 µM compound; for Ki: Cheng-Prusoff approximation
T2 construct: expressed in transfected cells; host or cells: HeLa
T2 sequence (P29274 whole entry): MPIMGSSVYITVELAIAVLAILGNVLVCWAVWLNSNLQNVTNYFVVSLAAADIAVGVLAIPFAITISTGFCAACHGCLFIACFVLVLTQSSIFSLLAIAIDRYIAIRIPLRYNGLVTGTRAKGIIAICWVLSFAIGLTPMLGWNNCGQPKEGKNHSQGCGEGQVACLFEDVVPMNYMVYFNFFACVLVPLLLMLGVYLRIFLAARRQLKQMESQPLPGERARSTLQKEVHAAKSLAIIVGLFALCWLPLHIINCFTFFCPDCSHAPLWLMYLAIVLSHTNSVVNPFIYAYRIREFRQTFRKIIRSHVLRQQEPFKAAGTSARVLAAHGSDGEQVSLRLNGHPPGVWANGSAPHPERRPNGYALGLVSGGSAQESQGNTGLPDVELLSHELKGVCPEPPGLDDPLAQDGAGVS
Description: (§1) Bioactivity testing was performed using A1 and A2A human adenosine receptors expressed in transfected CHO (A1) and HeLa (A2A) cells, as well as AD293 cells that were transiently transfected with human PDE10A. Table 1 includes the list of synthesized 4,6-substituted 2-amino-pyridin-3-carbonitriles, along with their Ki values against A1R, A2AR, and IC50 values against PDE10A.
(§2) Pharmacological evaluation was performed in a radioligand binding competition assay, using A1, A2A, A2B, and A3 human receptors expressed in transfected CHO (A1), HeLa (A2A and A3), and HEK-293 (A2B) according to the procedure reported by Bosch et al..

[3] = biological target: T3, A2B human receptor (A2BR) (Homo sapiens, UniProt P29275); experiment: Radioligand binding competition assay, human A2B receptor in transfected HEK-293 cells; details: 0.1 µM compound; read-out: percentage displacement at 0.1µM (A2BR)
T3 construct: expressed in transfected cells; host or cells: HEK-293
T3 sequence (P29275 1-332): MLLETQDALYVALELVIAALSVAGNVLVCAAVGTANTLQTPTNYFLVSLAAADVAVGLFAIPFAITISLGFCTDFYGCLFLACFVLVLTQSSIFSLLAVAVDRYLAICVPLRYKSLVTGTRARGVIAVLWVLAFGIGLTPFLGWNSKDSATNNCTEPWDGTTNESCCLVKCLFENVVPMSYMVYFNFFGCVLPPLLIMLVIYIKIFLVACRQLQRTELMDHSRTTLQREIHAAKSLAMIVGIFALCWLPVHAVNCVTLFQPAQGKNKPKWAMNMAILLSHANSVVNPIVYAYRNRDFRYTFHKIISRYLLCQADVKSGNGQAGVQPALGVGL
Description: as §2

A3 human receptor (A3R) = biological target: T4, A3 human receptor (A3R) (Homo sapiens, UniProt P0DMS8); experiment: Radioligand binding competition assay, human A3 receptor in transfected HeLa cells; details: 0.1 µM compound; read-out: percentage displacement at 0.1µM (A3R)
T4 construct: expressed in transfected cells; host or cells: HeLa
T4 sequence (P0DMS8 1-318): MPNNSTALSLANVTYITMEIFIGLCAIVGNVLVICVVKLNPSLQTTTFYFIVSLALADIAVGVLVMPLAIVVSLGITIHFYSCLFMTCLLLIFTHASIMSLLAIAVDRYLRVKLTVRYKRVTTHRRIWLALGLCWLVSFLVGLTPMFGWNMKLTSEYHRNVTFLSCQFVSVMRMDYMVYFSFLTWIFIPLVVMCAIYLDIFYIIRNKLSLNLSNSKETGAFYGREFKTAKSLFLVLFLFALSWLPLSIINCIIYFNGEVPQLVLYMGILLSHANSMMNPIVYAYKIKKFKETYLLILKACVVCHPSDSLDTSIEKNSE
Description: as §2

human PDE10A = biological target: T5, human PDE10A (Homo sapiens, UniProt Q9Y233); experiment: Phosphodiesterase activity, AD293 cells transiently transfected with human PDE10A; format: biochemical; details: for IC50: mean of 3 experiments in duplicate; for inhibition at 10 µM: read-out: % inhibition at 10 μM (PDE10A), 10 μM compound
T5 construct: expressed in transfected cells; host or cells: AD293 (transient transfection)
T5 sequence (Q9Y233 267-1055 limits assumed): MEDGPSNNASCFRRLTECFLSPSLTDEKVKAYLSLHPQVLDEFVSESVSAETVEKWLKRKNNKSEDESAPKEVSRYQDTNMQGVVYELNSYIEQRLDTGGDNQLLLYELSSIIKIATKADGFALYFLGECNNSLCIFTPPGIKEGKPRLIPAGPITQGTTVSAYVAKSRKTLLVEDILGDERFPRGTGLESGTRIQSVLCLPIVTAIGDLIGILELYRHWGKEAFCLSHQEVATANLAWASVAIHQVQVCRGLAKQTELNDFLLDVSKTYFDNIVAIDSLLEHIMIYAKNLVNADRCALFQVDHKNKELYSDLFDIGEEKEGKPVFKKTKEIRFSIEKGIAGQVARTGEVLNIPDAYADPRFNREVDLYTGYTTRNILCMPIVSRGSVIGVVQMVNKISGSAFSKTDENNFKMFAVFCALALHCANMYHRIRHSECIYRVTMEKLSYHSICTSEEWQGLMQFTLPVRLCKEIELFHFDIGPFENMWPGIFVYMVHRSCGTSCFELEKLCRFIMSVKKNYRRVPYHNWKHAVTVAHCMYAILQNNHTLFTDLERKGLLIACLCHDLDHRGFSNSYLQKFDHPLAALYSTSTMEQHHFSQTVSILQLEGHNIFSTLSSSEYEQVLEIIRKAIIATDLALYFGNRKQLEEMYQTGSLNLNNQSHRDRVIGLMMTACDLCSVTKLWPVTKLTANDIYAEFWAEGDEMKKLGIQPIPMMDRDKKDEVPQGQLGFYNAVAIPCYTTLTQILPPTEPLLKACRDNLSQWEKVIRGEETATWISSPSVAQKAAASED
Description: as §1
(§3) The activity measurements against the phosphodiesterases PDE7A, PDE7B, PDE9A and PDE10A were performed using AD293 cells that were transiently and separately transfected with human PDE7A, PDE7B, PDE9A, and PDE10A following the procedure described by Shipe et al..

human PDE7A = biological target: T6, human PDE7A (Homo sapiens, UniProt Q13946); experiment: Phosphodiesterase activity, AD293 cells transiently transfected with human PDE7A; format: biochemical; details: for inhibition at 10 µM: 10 µM compound, read-out: Percentage inhibition at 10µM (PDE7A)
T6 construct: expressed in transfected cells; host or cells: AD293 (transient transfection)
T6 sequence (Q13946 whole entry): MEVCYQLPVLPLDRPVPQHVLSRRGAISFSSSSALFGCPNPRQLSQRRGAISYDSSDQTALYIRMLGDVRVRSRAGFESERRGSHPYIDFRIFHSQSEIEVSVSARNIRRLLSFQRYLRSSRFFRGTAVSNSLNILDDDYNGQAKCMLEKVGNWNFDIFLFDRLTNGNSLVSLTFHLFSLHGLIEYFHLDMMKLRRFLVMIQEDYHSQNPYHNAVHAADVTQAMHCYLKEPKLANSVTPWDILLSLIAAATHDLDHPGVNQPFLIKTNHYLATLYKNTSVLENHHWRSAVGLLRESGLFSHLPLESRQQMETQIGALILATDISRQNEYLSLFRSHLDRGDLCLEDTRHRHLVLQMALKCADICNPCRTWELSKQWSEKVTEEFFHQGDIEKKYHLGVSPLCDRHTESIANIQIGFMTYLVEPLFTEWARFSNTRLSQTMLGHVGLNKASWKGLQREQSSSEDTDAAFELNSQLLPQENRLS
Description: as §3

human PDE7B = biological target: T7, human PDE7B (Homo sapiens, UniProt Q9NP56); experiment: Phosphodiesterase activity, AD293 cells transiently transfected with human PDE7B; format: biochemical; details: for inhibition at 10 µM: 10 µM compound, read-out: Percentage inhibition at 10µM (PDE7B)
T7 construct: expressed in transfected cells; host or cells: AD293 (transient transfection)
T7 sequence (Q9NP56 whole entry): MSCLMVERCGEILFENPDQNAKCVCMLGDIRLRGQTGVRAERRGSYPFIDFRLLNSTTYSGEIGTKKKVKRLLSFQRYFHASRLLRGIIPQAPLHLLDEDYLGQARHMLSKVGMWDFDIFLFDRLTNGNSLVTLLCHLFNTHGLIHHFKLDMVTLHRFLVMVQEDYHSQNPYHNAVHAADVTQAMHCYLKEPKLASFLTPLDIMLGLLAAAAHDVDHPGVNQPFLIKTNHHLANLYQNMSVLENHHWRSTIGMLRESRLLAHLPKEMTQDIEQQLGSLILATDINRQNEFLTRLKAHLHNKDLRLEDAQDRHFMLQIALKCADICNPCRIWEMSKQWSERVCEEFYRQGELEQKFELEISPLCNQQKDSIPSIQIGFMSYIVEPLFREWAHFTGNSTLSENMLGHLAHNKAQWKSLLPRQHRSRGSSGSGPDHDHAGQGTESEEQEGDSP
Description: as §3

human PDE9A = biological target: T8, human PDE9A (Homo sapiens, UniProt O76083); experiment: Phosphodiesterase activity, AD293 cells transiently transfected with human PDE9A; format: biochemical; details: 10 µM compound; read-out: Percentage inhibition at 10µM (PDE9A)
T8 construct: expressed in transfected cells; host or cells: AD293 (transient transfection)
T8 sequence (O76083 whole entry): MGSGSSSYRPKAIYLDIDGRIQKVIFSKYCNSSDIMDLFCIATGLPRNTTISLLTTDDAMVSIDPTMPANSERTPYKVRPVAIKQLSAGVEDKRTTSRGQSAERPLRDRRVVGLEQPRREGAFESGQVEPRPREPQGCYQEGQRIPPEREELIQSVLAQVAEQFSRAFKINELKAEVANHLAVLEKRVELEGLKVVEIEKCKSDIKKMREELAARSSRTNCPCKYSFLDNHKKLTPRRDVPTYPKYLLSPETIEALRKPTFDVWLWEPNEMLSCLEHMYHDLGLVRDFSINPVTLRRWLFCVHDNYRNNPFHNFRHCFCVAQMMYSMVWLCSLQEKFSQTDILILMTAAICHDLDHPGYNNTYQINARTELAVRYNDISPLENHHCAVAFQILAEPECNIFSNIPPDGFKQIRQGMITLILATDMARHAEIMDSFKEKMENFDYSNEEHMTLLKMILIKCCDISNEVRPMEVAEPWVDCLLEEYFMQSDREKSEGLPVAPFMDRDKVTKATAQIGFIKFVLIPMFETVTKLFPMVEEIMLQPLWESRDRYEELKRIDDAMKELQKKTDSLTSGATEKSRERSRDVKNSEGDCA
Description: as §3

SMILES	inhibition at 0.1 µM [1]	% displacement at 0.1 μM (A2AR) [2]	inhibition at 0.1 µM [3]	inhibition at 0.1 µM (A3 human receptor (A3R))	IC50 (human PDE10A)	inhibition at 10 µM (human PDE7A)	inhibition at 10 µM (human PDE7B)	inhibition at 10 µM (human PDE9A)	melting point	Ki [1]	Ki [2]	inhibition at 10 µM (human PDE10A)	selectivity over all tested off-targets (human PDE10A; PDE10A IC50 versus lowest selectivity at PDE7B (55% inhibition at 10 µM))	IC50 (human PDE7A)	IC50 (human PDE7B)
N#Cc1c(-c2ccccc2)cc(-c2nccs2)nc1N [Compound 3, 2-amino-4-phenyl-6-(1,3-thiazol-2-yl)pyridine-3-carbonitrile]	12%	8%	3%	6%	2 ± 0.2 µM	24%	36%	5%	154 to 156 °C						
N#Cc1c(C2CCCCC2)cc(-c2ccco2)nc1N [Compound 13, 2-amino-4-cyclohexyl-6-(furan-2-yl)pyridine-3-carbonitrile]			3%	19%		44%	41%	4%	177 to 178 °C	0.07 ± 0.003 µM	0.049 ± 0.004 µM	55%			
N#Cc1c(C2CCCCC2)cc(-c2ccsc2)nc1N [Compound 12, 2-amino-4-cyclohexyl-6-(thiophen-3-yl)pyridine-3-carbonitrile]	44%	60%	2%	14%	0.9 ± 0.2 µM	29%	60%	3%	145 to 146 °C						
N#Cc1c(-c2ccc3c(c2)OCO3)cc(-c2ccccc2)nc1N [Compound 7, 2-amino-4-(2H-1,3-benzodioxol-5-yl)-6-phenylpyridine-3-carbonitrile]		5%	1%	2%		22%	8%	19%	220 to 221 °C	0.025 ± 0.002 µM		17%			
Cc1ccccc1-c1cc(C2CCCCC2)c(C#N)c(N)n1 [Compound 10, 2-amino-4-cyclohexyl-6-(2-methylphenyl)pyridine-3-carbonitrile]	17%	18%	1%	28%	3.7 ± 0.3 µM	31%	35%	9%	120 to 121 °C						
N#Cc1c(C2CCCCC2)cc(-c2ccccc2)nc1N [Compound 8, 2-amino-4-cyclohexyl-6-phenylpyridine-3-carbonitrile]		50%	1%	13%	2.4 ± 0.2 µM	26%	55%	30%	125 to 126 °C	0.294 ± 0.01 µM			twofold		
N#Cc1c(-c2ccccc2Cl)cc(-c2ccc(O)cc2)nc1N [Compound 23, 2-amino-4-(2-chlorophenyl)-6-(4-hydroxyphenyl)pyridine-3-carbonitrile]	2%	10%	8%	1%	4 ± 0.3 µM			25%	215 to 217 °C					1.8 µM	7.3 µM
COc1ccccc1-c1cc(-c2ccco2)nc(N)c1C#N [Compound 21, 2-amino-6-(furan-2-yl)-4-(2-methoxyphenyl)pyridine-3-carbonitrile]	38%		2%	23%	10 ± 0.6 µM		30%	17%	187 to 188 °C		0.095 ± 0.004 µM			15.1 µM	
N#Cc1c(-c2ccccc2F)cc(-c2ccccc2F)nc1N [Compound 18, 2-amino-4,6-bis(2-fluorophenyl)pyridine-3-carbonitrile]			1%	1%		25%	36%	0%	180 to 181 °C	0.078 ± 0.005 µM	0.948 ± 0.013 µM	38%			
COc1ccccc1-c1cc(-c2ccccc2F)nc(N)c1C#N [Compound 19, 2-amino-6-(2-fluorophenyl)-4-(2-methoxyphenyl)pyridine-3-carbonitrile]	58%		2%	1%		49%	42%	19%	187 to 188 °C		0.338 ± 0.012 µM	73%			
N#Cc1c(C2CCCCC2)cc(-c2ccccc2F)nc1N [Compound 9, 2-amino-4-cyclohexyl-6-(2-fluorophenyl)pyridine-3-carbonitrile]		34%	2%	7%		19%	34%	1%	126 to 127 °C	0.084 ± 0.008 µM		68%			
COc1ccc(-c2cc(-c3ccco3)nc(N)c2C#N)cc1 [Compound 16, 2-amino-6-(furan-2-yl)-4-(4-methoxyphenyl)pyridine-3-carbonitrile]			33%	21%	3.2 ± 0.4 µM		30%	2%	205 to 207 °C					3.4 µM	
N#Cc1c(-c2ccc(O)cc2)cc(-c2ccc(O)cc2)nc1N [Compound 24, 2-amino-4,6-bis(4-hydroxyphenyl)pyridine-3-carbo-nitrile]	19%	7%	1%	1%	3.1 ± 0.4 µM	47%	38%	7%	299 to 300 °C						
N#Cc1c(C2CCCCC2)cc(-c2cccs2)nc1N [Compound 11, 2-amino-4-cyclohexyl-6-(thiophen-2-yl)pyridine-3-carbonitrile]	16%	11%	1%	26%	1.2 ± 0.1 µM	33%	45%	6%	160 to 162 °C						
COc1ccc(-c2cc(-c3ccccc3C)nc(N)c2C#N)cc1 [Compound 15, 2-amino-4-(4-methoxyphenyl)-6-(2-methylphenyl)pyridine-3-carbonitrile]	6%	32%	4%	17%	1.5 ± 0.2 µM	57%	55%	16%							
